The record followed here is patent US20060281807A1, “Quassinoid compositions for the treatment of cancer and other proliferative diseases” (Tapestry Pharmaceuticals, Inc., priority 2005, published 2006).

Where “and” joins values, the source holds several entries; their conditions need not be identical. Equal entries are not always repeated.

A short description of data set [1]: Pharmacokinetics, plasma and tumor concentration by HPLC in HCT-116 tumor-bearing SCID mice. Type of data set: in vivo. The following applies: for concentration in plasma / concentration in tumor: 2.25 mg/mouse intravenously. How it is done:
Samples from HCT-116 tumor-bearing SCID mice were analyzed via high performance liquid chromatography (HPLC) following administration of inventive compositions. […] At different time points following administration of the inventive compounds (up to 24 hours), individual mice were killed and both blood and tumor samples were removed for HPLC analysis.
In particular, a Waters 2690 Separation Module (Waters Corp., Milford, Mass.) connected to a Waters 2487 Dual wavelength absorbance detector controlled by Millennium32 v3.20 was used for separation, detection, data acquisition, integration and quantitation. An external standard calibration method was used to quantify the inventive compounds in each sample. A Symmetry Shield RP18 5 μm ([…]) analytical column (Waters Corp., Milford, Mass.) was used in the separation of each inventive compound. The column temperature was maintained at 30° C. 25 μl of each sample was injected per analytical run.
The mobile phase consisted of 99% water/1% acetonitrile as the initial gradient composition for the inventive composition. A gradient analysis from deionized water to acetonitrile at a flow rate of 1 mL/min for each tested compound is set forth in Tables 9 and 10. The detection wavelength for the inventive composition was 278 nm, and the retention time was 7.8 minutes.
For the in vivo pharmacokinetic trial, 15 mice were inoculated bilaterally and subcutaneously in the inguinal area with 10^7 tumor cells (by a 16-gauge needle), such as HCT-116 cells or trocar-implanted Colon 38 cells. Each of the compounds 15-O-(3′-hydroxy-3′-isopropyl-4′-methylpentanoyl)bruceolide and 15-(3-isopropyl-4-methyl-2-pentenoyl)-bruceolide was administered intravenously at the MTD in 0.25 mL via the tail vein. Each compound was administered to 10 animals when the tumors reached a measurable size (i.e., 80 to 300 mm^3) at a dose determined from the MTD study. The remaining five animals served as time-point controls. At prescribed times thereafter, one animal per time point was sacrificed, and blood and bilateral tumors were harvested for analysis of drug concentrations. Specifically, mice were sacrificed for pharmacological analysis at 1, 5, 15, 30, 60, 120, 240, 360 minutes and 12 and 24 hours following administration of the inventive compounds.

For data set [2], the system named is HCT116 (human colorectal carcinoma). Put plainly: Disk diffusion assay, zone of inhibition, HCT116. Type of data set: cell-based. As to conditions: 1 mg/mL. How it is done: (§1) A disk diffusion assay was performed to define the differential cell killing ability of 15-O-(3′-hydroxy-3′-isopropyl-4′-methylpentanoyl)bruceolide. Seven cell types were assayed: L1210 (ATCC CCL-219) (murine leukemia), CCRF-CEM (ATCC CCL-119) (human leukemia), Colon 38 (murine colon adenocarcinoma), HCT116 (ATCC CCL-247) (human colorectal carcinoma), H125 (human lung carcinoma). The murine and human granulocyte/macrophage progenitor cell line (CFU-GM), served as controls.
Colon 38 cells (about 1 gram) were cut into small fragments in 15 mL of Hank's Balanced Salt Solution (HBSS) over a 100-mesh sieve and gently forced through by the scissors with HBSS constantly perfusing the sieve. The resulting material was then drawn into and out of a 5 mL syringe without a needle to further disperse the cell clumps. The cell solution was diluted and plated in 0.3% agarose in DMEM plus 10% heat-inactivated Bovine Calf Serum (BCS). For plating of all of the cell types (except controls), the 60 mm plates were first prepared with a hard agar bottom layer (0.6% agar in RPMI-1640 plus 15% BCS).
HCT116 and H125 cells were maintained in cell culture, and were removed from culture by a trypsin-collagenase-DNAase cocktail. The plating efficiencies of each cell type was sufficiently high that 30,000 cells in 3 mL produced the desired number of colonies (i.e., over 10,000 per plate) in 60 mm plates. This soft agar top layer (0.3% with the serum and media as above) plus the titrated tumor cells were poured into the plates and allowed to solidify.
(§2) A 15 μl sample of each compound was dropped onto a 6.5 mm disk (Baxter filter disks). The disks were allowed to dry overnight and then placed close to the edge of a petri dish. Depending upon the cell type, the dishes were incubated for 7 to 10 days, and examined by an inverted stereo-microscope (10×) for measurement of the zone of inhibition. The zone of inhibition was measured from the edge of the filter disk to the beginning of normal-sized colony formation. The diameter of the filter disk, 6.5 mm, was arbitrarily taken as a zone of 200 units. Compounds that were selective for killing solid tumors, as compared to leukemia or normal cells (“solid tumor selective”) were defined as those compounds which produced a difference in zones between solid tumor cells and either normal or leukemia cells of at least 250 units. The results of this analysis are set forth in Table 4, which illustrates the relative diameters of the zones of inhibition by various drugs on the growth of the respective cell types at various drug dilutions.
On the technique in general: Agar diffusion results depend on both activity and mobility in agar.

The subject of a further data set is murine CFU-GM. Put plainly: Disk diffusion assay, zone of inhibition, murine CFU-GM. Type of data set: cell-based. As to conditions: 1 mg/mL. How it is done:
as §1
For CFU-GM cells, the femoral marrow of BD2F1 mice was flushed with MEM alpha (2 mL per femur). The cells were passed through an 18 gauge needle twice and the monodispersed suspension was counted. A total of 1.5×10^6 cells were plated in 3 mL of 0.3% agar with the addition of 10% L cell conditioned media, which provided colony stimulating factor, in MEM-alpha plus 10% BCS. For human CFU-GM, the cells were obtained from Poietic Technologies, Inc. (Gaithersburg, Md.) and washed twice with PBS before being titered and added to the agar mixture. The same cell number, culture conditions, and conditioning factors used with respect to the murine CFU-GM cells were used with the human cells, except that the cultures were assessed after 10 days of incubation.
as §2

The test system of another data set is HCT-116 cells. In words: Clonogenic assay, HCT-116. It counts as cell-based, human. As to conditions: colonies at 7 days. The protocol:
A clonogenic assay was performed using HCT-116 cells. Specifically, HCT-116 cells were seeded at 200 to 20,000 cells in 60 mm dishes. […] At either 2 hours or 24 hours following drug administration, the drug-containing media was removed, and fresh media without drug was added. In addition, one group of cells was subjected to continuous drug exposure for the entire incubation period. The dishes were incubated for 7 days (at 37° C. and 5% CO2), media was removed, and the colonies were stained with methylene blue. Colonies containing 50 cells or more were counted. The results were normalized to an untreated control. Plating efficiency for the untreated cells was about 90%. Repeat experiments also were carried out to define the cell survival range between 1 (100%) and 10^−3 (0.1%) survival. A survival rate of 10^−1 was chosen as the minimal level that would be required in vivo to achieve therapeutic efficacy against HCT-116 cells in tumor-bearing mice. The clonogenic dose response to 15-O-(3′-hydroxy-3′-isopropyl-4′-methylpentanoyl)bruceolide is illustrated in FIG. 4. The clonogenic dose response to 15-(3-isopropyl-4-methyl-2-pentenoyl)-bruceolide is illustrated in FIG. 5.

The mark [3] stands for this setting: no dilution, 15 μl on disk, 6.5 mm = 200 units.

On to `COC(=O)[C@@]12OC[C@@]34C1[C@@H](OC(=O)CC(O)(C(C)C)C(C)C)C(=O)O[C@@H]3C[C@H]1C(C)=C(O)C(=O)C[C@]1(C)[C@H]4[C@@H](O)[C@@H]2O` (some centres unmarked) [15-O-(3′-hydroxy-3′-isopropyl-4′-methylpentanoyl)bruceolide], for which the “survival of mouse designated for analysis” value in data set [1] (24 hours post administration, 2.25 mg/mouse intravenously (above the MTD)) is “did not survive”. Also, the concentration in plasma result in data set [1] (one hour post administration) was “approximately 7 μg/mL”; in data set [1] (six hours post administration) it was 100 ng/mL; in data set [1] (two hours post administration), 1500 ng/mL. Moreover, the concentration in tumor result in data set [1] (one hour post administration) is “approximately 7 μg/mL”; in data set [1] (six hours post administration), 800 ng/mL; in data set [1] (two hours post administration), “approximately 4 μg/mL”. The “zone of inhibition, H-116” value is 1000 units and 900 units in data set [2] (dilution 1/10); 0 units in data set [2] (dilution 1/1000); above 1000 units in data set [2] (setting [3]). In addition, the “zone of inhibition, murine CFU-GM” value in the data set with murine CFU-GM (dilution 1/10) is 50 units; with murine CFU-GM (dilution 1/100), 300 units and 200 units; with murine CFU-GM (dilution 1/400), 100 units; in the data set on murine CFU-GM (dilution 1/1000) it was 0 units. For the same compound, the “Concentration Required for 10^−1 Survival Fraction” value with HCT-116 cells (HCT-116, 2 Hour Exposure) is above 10 μg/mL; in the data set on HCT-116 cells (HCT-116, 24 Hour Exposure), 1 × 10^0 μg/mL; in the data set with HCT-116 cells (HCT-116, Continuous Exposure), 7 × 10^−3 μg/mL.

In the case of `COC(=O)[C@@]12OC[C@@]34C1[C@@H](OC(=O)C=C(C(C)C)C(C)C)C(=O)O[C@@H]3C[C@H]1C(C)=C(O)C(=O)C[C@]1(C)[C@H]4[C@@H](O)[C@@H]2O` (some centres unmarked) [15-O-(3′-isopropyl-4′-methyl-2′-pentenoyl)-bruceolide], the concentration at 0.5 h in data set [1] (SCID, in vivo, 0.5 hour time point, intravenous (FIG. 8: 0.075 mg/mouse)) was determined as 100 ng/mL. Besides, the concentration at 1 h in data set [1] (SCID, in vivo, 1 hour time point, intravenous (FIG. 8: 0.075 mg/mouse), below sensitivity of the assay) was below 50 ng/mL. Besides, the “level in the tumor, FIG. 8” value in data set [1] (all time points, 0.075 mg/mouse intravenously, detection limit 0.05 μg/mL) was “below the detection limit”. In addition, the “concentration in tumor samples” value in data set [1] (entire 24 hour sampling period, intravenous (FIG. 8: 0.075 mg/mouse)) was “below the sensitivity level of the assay”. For the same compound, the “concentration in vivo (plasma), FIG. 8” value in data set [1] (time points 1 to 24 hours, 0.075 mg/mouse intravenously, below detection limit) is below 50 ng/mL. For the same compound, the “zone of inhibition, H-116” value in data set [2] (dilution 1/10) is listed as 750 units; in data set [2] (dilution 1/100) it was 100 units; in data set [2] (dilution 1/1000), 0 units; in data set [2] (setting [3]), above 1000 units. Besides, the “zone of inhibition, murine CFU-GM” value with murine CFU-GM (dilution 1/10) was 650 units; in the data set on murine CFU-GM (dilution 1/100), 350 units and 600 units; in the data set with murine CFU-GM (dilution 1/1000), 0 units. The “Concentration Required for 10^−1 Survival Fraction” value in the data set on HCT-116 cells (HCT-116, 2 Hour Exposure) is recorded as above 10 μg/mL; in the data set on HCT-116 cells (HCT-116, 24 Hour Exposure), 1.5 × 10^0 μg/mL; with HCT-116 cells (HCT-116, Continuous Exposure), 1.5 × 10^−3 μg/mL.
